Legend:
Assay in all cases: relative viability (nuclei count vs DMSO), 5 days (fraction); higher = more cells survive
AZ3146 + Decitabine = compound: CN1CCC(CC1)OC2=CC(=C(C=C2)NC3=NC=C4C(=N3)N(C(=O)N4C)C5CCCC5)OC [AZ3146] + Nc1ncn([C@H]2C[C@H](O)[C@@H](CO)O2)c(=O)n1 [Decitabine] (partner 2 µM)
Procedure, shortened: (§1)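 For relative viability, nuclei counts in treated wells were divided by those in vehicle wells. Lung cancer cell lines had been pin-tool dosed in 1536-well plates the day after seeding and cultured for 5 days, then fixed and stained in one step (final 0.05% Triton X-100, 1% formaldehyde, 1 ug/ml Hoechst) and imaged at 4×. Doses were one drug alone or a fixed anchor-drug dose plus five library-drug doses (not always all listed) in √10 steps, and values are duplicate-plate medians.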

AZ3146 + OSI-027 = compound: CN1CCC(CC1)OC2=CC(=C(C=C2)NC3=NC=C4C(=N3)N(C(=O)N4C)C5CCCC5)OC [AZ3146] + COc1cccc2cc(-c3nc([C@H]4CC[C@H](C(=O)O)CC4)n4ncnc(N)c34)[nH]c12 [OSI-027] (partner 0.5 µM)
Procedure, shortened: as §1

GSK-J4 + Pemetrexed = compound: CCOC(=O)CCNc1cc(N2CCc3ccccc3CC2)nc(-c2ccccn2)n1 [GSK-J4] + Nc1nc2[nH]cc(CCc3ccc(C(=O)N[C@@H](CCC(=O)O)C(=O)O)cc3)c2c(=O)[nH]1 [Pemetrexed] (partner 0.2 µM)
Procedure, shortened: as §1

AZ3146 + Olaparib = compound: CN1CCC(CC1)OC2=CC(=C(C=C2)NC3=NC=C4C(=N3)N(C(=O)N4C)C5CCCC5)OC [AZ3146] + O=C(c1cc(Cc2n[nH]c(=O)c3ccccc23)ccc1F)N1CCN(C(=O)C2CC2)CC1 [Olaparib] (partner 8 µM)
Procedure, shortened: as §1

| Cell Line | relative viability (AZ3146 + Decitabine; first compound 0.08 µM) | relative viability (AZ3146 + Decitabine; first compound 0.253 µM) | relative viability (AZ3146 + Decitabine; first compound 0.8 µM) | relative viability (AZ3146 + Decitabine; first compound 2.53 µM) | relative viability (AZ3146 + Decitabine; first compound 8 µM) | relative viability (AZ3146 + OSI-027; first compound 0.08 µM) | relative viability (AZ3146 + OSI-027; first compound 0.253 µM) | relative viability (AZ3146 + OSI-027; first compound 0.8 µM) | relative viability (AZ3146 + OSI-027; first compound 2.53 µM) | relative viability (AZ3146 + OSI-027; first compound 8 µM) | relative viability (GSK-J4 + Pemetrexed; first compound 0.5 µM) | relative viability (GSK-J4 + Pemetrexed; first compound 5 µM) | relative viability (GSK-J4 + Pemetrexed; first compound 15.81 µM) | relative viability (GSK-J4 + Pemetrexed; first compound 50 µM) | relative viability (AZ3146 + Olaparib; first compound 0.08 µM) | relative viability (AZ3146 + Olaparib; first compound 0.253 µM) | relative viability (AZ3146 + Olaparib; first compound 0.8 µM) | relative viability (AZ3146 + Olaparib; first compound 2.53 µM) | relative viability (AZ3146 + Olaparib; first compound 8 µM) | relative viability (GSK-J4 + Pemetrexed; first compound 1.581 µM) |
| --- | --- | --- | --- | --- | --- | --- | --- | --- | --- | --- | --- | --- | --- | --- | --- | --- | --- | --- | --- | --- |
| ChaGo-K-1 | 0.509 | 0.502 | 0.509 | 0.531 | 0.501 | 0.572 | 0.611 | 0.539 | 0.581 | 0.366 | 0.259 | 0.247 | 0.259 | 0.266 | 0.352 | 0.436 | 0.361 | 0.421 | 0.357 | – |
| NCI-H2023 | 0.235 | 0.203 | 0.246 | 0.227 | 0.13 | 0.42 | 0.364 | 0.298 | 0.362 | 0.21 | 0.177 | 0.238 | 0.218 | 0.173 | 0.464 | 0.451 | 0.494 | 0.436 | 0.152 | 0.245 |
| NCI-H2405 | 0.733 | 0.738 | 0.789 | 0.788 | 0.697 | 0.652 | 0.62 | 0.582 | 0.696 | 0.641 | 1.01 | – | 1 | 1.02 | 0.827 | 0.881 | 0.933 | 0.925 | 0.818 | 1 |
| HCC-44 | 0.912 | 0.889 | 1.03 | 0.943 | 0.958 | 0.484 | 0.427 | 0.416 | 0.622 | 0.558 | 0.601 | 0.638 | 0.668 | 0.625 | 0.996 | 0.991 | 1.06 | 0.964 | 0.942 | 0.503 |
| EPLC-272H | 0.375 | 0.379 | 0.396 | 0.368 | 0.418 | – | 0.277 | 0.272 | 0.309 | 0.308 | 0.36 | 0.319 | 0.295 | 0.3 | 0.892 | 0.841 | 0.878 | 0.914 | 0.643 | 0.294 |
| NCI-H322M | 0.604 | 0.671 | 0.727 | 0.698 | 0.721 | 0.51 | 0.581 | 0.509 | 0.601 | 0.48 | 0.638 | 0.672 | 0.394 | 0.682 | 0.839 | 0.839 | 0.644 | 0.813 | 0.729 | 0.588 |
| SK-MES-1 | 0.364 | 0.397 | 0.359 | 0.477 | 0.344 | 0.659 | 0.621 | 0.568 | 0.569 | 0.452 | 0.836 | 0.882 | 0.808 | 0.508 | 0.779 | 0.759 | 0.718 | 0.784 | 0.654 | 0.878 |
| NCI-H2170 | 0.441 | 0.477 | 0.461 | 0.421 | 0.466 | 0.676 | 0.66 | 0.66 | 0.713 | 0.713 | 0.237 | 0.243 | 0.252 | 0.273 | 0.578 | 0.63 | 0.542 | 0.614 | 0.623 | 0.292 |

From the supplement of paper PMC10307832
